Assay results taken from ChEMBL document CHEMBL1127896, “Synthesis and pharmacological characterization of ABT-200: a putative novel antidepressant combining potent -2 antagonism with moderate NE uptake inhibition” (Bioorg Med Chem Lett, 1994).

What was measured:
[1] = biological target: T1, Adrenergic receptor alpha-2 (Rattus norvegicus, UniProt P22086+P19328+P22909); test: Evaluated for its presynaptic Alpha-2 adrenergic receptor antagonistic activity against rat vas deferens using clonidine as the control expressed as slope; type: functional, tissue-based
T1 sequence (P22086 whole entry): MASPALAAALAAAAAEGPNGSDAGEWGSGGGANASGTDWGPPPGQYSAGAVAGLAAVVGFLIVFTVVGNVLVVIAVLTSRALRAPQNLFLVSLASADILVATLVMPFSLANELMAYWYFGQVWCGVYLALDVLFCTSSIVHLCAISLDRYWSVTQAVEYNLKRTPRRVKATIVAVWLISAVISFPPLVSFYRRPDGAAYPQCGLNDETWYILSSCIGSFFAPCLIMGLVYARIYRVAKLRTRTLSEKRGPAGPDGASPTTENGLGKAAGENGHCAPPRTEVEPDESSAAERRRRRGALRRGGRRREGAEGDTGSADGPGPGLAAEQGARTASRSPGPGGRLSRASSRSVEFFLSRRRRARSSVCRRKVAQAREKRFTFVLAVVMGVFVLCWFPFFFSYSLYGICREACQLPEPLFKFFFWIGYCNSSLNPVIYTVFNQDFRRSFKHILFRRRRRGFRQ
T1 sequence (P19328 whole entry): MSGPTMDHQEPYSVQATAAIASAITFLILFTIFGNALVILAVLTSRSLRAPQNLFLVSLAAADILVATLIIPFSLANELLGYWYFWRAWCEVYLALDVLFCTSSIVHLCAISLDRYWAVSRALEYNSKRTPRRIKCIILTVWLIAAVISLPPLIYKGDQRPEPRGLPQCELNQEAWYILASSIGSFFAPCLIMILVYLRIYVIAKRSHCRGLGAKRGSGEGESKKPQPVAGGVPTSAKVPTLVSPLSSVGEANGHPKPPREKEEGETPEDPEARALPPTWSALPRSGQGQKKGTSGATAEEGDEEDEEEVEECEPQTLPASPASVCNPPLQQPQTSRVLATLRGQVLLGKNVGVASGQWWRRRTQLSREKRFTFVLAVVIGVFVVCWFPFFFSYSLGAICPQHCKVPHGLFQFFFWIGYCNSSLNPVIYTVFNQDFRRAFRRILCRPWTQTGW
T1 sequence (P22909 whole entry): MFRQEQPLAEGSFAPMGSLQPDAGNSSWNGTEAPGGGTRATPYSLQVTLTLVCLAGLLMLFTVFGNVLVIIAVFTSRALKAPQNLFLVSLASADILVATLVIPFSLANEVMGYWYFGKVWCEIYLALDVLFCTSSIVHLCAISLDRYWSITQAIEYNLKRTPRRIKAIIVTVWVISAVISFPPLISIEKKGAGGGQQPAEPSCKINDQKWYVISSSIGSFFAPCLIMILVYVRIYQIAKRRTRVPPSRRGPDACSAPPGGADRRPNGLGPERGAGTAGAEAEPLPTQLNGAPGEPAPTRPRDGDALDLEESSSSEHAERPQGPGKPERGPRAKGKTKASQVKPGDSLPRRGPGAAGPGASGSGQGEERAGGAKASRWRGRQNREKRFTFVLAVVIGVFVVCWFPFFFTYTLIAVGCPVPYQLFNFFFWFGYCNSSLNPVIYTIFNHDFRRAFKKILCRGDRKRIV

[2] = biological target: T1, Adrenergic receptor alpha-2; test: In vitro binding affinity at Alpha-2 adrenergic receptor in rat cortex by radioligand binding assay using [3H]rauwolscine
[3] = biological target: T2, Adrenergic receptor alpha-1 (Rattus norvegicus, UniProt P15823+P23944+P43140); test: In vitro binding affinity at Alpha-1 adrenergic receptor by radioligand binding assay using [3H]prazosin; type: protein assay
T2 sequence (P15823 whole entry): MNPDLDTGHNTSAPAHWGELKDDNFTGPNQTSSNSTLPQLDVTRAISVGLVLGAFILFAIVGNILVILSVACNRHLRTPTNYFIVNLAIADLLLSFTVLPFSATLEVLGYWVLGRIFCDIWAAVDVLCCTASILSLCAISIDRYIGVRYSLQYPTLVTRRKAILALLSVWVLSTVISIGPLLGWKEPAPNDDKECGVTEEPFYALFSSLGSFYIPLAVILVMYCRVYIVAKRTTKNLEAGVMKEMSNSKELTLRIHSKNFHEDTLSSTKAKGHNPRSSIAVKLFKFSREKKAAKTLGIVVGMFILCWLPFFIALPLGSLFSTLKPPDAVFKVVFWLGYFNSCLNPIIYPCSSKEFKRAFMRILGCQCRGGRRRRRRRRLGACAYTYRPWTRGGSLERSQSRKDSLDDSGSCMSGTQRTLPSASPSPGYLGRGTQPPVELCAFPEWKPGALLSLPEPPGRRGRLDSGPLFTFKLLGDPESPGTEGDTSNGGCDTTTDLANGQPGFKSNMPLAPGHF
T2 sequence (P23944 whole entry): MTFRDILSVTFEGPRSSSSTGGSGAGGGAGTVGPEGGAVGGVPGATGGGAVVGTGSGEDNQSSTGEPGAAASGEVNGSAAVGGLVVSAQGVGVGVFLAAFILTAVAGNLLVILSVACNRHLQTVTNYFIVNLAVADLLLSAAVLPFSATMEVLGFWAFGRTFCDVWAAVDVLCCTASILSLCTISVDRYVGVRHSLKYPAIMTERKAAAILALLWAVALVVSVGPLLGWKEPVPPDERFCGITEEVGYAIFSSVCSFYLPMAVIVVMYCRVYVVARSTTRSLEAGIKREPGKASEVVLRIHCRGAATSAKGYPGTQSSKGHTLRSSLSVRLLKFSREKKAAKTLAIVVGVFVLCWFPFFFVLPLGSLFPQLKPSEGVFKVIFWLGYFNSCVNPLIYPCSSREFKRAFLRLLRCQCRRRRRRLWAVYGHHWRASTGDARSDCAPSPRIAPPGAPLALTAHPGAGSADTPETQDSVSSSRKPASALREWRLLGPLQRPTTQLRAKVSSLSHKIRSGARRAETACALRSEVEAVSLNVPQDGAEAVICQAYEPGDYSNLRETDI
T2 sequence (P43140 whole entry): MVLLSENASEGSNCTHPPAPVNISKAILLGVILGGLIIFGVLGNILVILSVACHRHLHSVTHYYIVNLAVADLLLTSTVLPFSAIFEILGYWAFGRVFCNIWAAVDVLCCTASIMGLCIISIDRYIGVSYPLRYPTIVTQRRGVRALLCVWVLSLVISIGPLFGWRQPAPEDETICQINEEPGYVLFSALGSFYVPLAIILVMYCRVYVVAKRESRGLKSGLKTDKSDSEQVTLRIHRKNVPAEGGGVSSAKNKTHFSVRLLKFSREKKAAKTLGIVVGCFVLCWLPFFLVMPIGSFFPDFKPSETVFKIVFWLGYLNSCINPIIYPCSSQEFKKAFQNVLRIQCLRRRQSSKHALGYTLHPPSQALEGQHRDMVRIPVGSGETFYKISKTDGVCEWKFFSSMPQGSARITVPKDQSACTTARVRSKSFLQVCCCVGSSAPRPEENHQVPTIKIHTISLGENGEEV

Rattus norvegicus = species: Rattus norvegicus; test: Concentration required for its norepinephrine reuptake inhibitory activity in synaptosomal rat hyphalamic preparations; type: functional

SMILES | pA2 [1] | Ki [2] | Ki [3] | IC50 (Rattus norvegicus; Rattus norvegicus) | IC50 (Rattus norvegicus)
c1ccc([C@@H]2CCN(C[C@@H]3CCCc4c3ccc3c4OCO3)C2)cc1 | 7.91 | 0.5 nM | 47.4 nM | 1700 nM | –
c1ccc([C@H]2CCN(C[C@@H]3CCCc4c3ccc3c4OCO3)C2)cc1 | 7.78 | 0.428 nM | 106 nM | – | 3110 nM
c1ccc([C@@H]2CCN(C[C@H]3CCCc4c3ccc3c4OCO3)C2)cc1 | 6.78 | 2.08 nM | 104 nM | 636 nM | –
c1ccc(C2CCN(CC3CCCc4c3ccc3c4OCO3)C2)cc1 (stereo in doubt; 1a/b) | 7.68 | 1.23 nM | 112 nM | – | 841 nM

The remaining lines, values ahead:

pA2 [1] | Ki [2] | Ki [3] | IC50 (Rattus norvegicus; Rattus norvegicus) | IC50 (Rattus norvegicus) | SMILES
6.65 | 4.56 nM | 189 nM | 1450 nM | – | c1ccc([C@H]2CCN(C[C@H]3CCCc4c3ccc3c4OCO3)C2)cc1
7.84 | 0.708 nM | 75.9 nM | – | 1320 nM | c1ccc(C2CCN(CC3CCCc4c3ccc3c4OCO3)C2)cc1 (stereo in doubt; 6a/b)
– | 255 nM | – | 105 nM | – | CN(C)CCCN1c2ccccc2CCc2ccccc21 [IMIPRAMINE]
